What was measured:
human FPR2 = human FPR2 (Homo sapiens (Human), UniProt P25090); test: FPR2 cyclic adenosine monophosphate (cAMP) assay; type: cell-based; conditions: CHO cells overexpressing human FPR2; forskolin 5 µM; inhibition of cAMP production; read-out: hFPR2 cAMP2 EC50
In short: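 Inhibition of forskolin-driven (5 µM) cAMP, with 200 µM IBMX, measured in human FPR2-expressing CHO cells, 2,000 per well, 30 min at room temperature; compounds tested 0.020 nM to 100 µM in 1% DMSO. HTRF 665/590 ratio converted to cAMP via calibration curve, then 4-parameter fit.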

human FPR1 = human FPR1 (Homo sapiens (Human), UniProt P21462); test: FPR1 cyclic adenosine monophosphate (cAMP) assay; type: cell-based; conditions: CHO cells overexpressing human FPR1; forskolin 10 µM; inhibition of cAMP production; read-out: hFPR1 cAMP EC50
In short: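 Human FPR1-expressing CHO cells were used at 4,000 per well, with compound at 0.020 nM–100 µM in 1% DMSO. Potency came from a 4-parameter logistic fit.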

human FPR2, sequence (P25090 whole entry): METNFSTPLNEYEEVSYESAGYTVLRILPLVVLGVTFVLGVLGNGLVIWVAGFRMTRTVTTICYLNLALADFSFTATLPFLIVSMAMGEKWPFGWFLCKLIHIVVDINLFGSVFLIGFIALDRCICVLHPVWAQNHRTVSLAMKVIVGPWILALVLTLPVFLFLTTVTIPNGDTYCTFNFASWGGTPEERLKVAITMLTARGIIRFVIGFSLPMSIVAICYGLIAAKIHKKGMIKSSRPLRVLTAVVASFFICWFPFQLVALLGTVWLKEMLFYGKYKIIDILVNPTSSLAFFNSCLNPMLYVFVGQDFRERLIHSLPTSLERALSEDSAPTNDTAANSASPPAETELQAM
human FPR1, sequence (P21462 whole entry): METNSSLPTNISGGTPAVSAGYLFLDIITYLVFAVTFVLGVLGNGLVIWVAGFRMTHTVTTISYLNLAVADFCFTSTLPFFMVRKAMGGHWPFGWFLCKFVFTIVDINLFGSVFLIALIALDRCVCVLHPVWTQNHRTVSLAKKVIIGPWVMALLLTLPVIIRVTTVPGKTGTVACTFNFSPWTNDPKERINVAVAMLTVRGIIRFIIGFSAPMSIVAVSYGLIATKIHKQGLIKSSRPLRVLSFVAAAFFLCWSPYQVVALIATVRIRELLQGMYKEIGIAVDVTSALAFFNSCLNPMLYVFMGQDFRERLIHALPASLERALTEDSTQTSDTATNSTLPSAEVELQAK

Row | Compound | EC50 (human FPR2) [nM] | EC50 (human FPR1) [nM]
1 | CCn1cccc(N2C(=O)[C@@H](NC(=O)c3ccc(OC(F)(F)F)cc3)[C@H](c3c(F)cc(OC)cc3F)[C@H]2C)c1=O [Example 242] | 6.7 | 110
2 | COc1cc(F)c([C@@H]2CN(c3ccc(CO)n(C)c3=O)C(=O)[C@H]2NC(=O)c2ccc(OC(F)F)cc2)c(F)c1 [Example 243] | 6.7 | 170
3 | COc1cc(F)c([C@@H]2CN(c3cc(C)cn(C)c3=O)C(=O)[C@H]2NC(=O)c2ccc(OC(F)F)cc2)c(F)c1 [Example 244] | 6.8 | 950
4 | COCC(C(=O)N(C)C)n1cccc(N2C[C@@H](c3ccc(Cl)cc3)[C@H](NC(=O)c3ccc(OC(F)(F)F)cc3)C2=O)c1=O (stereo partly shown) [Example 245] | 6.8 | 1.1
5 | COc1cc(F)c([C@@H]2CN(c3nc(N4C(=O)CC[C@H]4CO)ccc3F)C(=O)[C@H]2NC(=O)c2ccc(OC(F)(F)F)cc2)c(F)c1 [Example 246] | 6.9 | 280
6 | COc1cc(F)c([C@@H]2CN(c3nc(C)ccc3C(F)(F)F)C(=O)[C@H]2NC(=O)c2ccc(OC(F)F)cc2)c(F)c1 [Example 247] | 6.9 | 250
7 | COCC(C(=O)N(C)C)n1ccc(C)c(N2C[C@@H](c3c(F)cc(OC)cc3F)[C@H](NC(=O)c3ccc(OC(F)(F)F)cc3)C2=O)c1=O (stereo partly shown) [Example 248] | 6.9 | 0.7
8 | CCn1cccc(N2C[C@@H](c3ccc(OC)cc3F)[C@H](NC(=O)c3ccc(OC(F)(F)F)cc3)C2=O)c1=O [Example 249] | 6.9 | 13
9 | COc1cc(F)c([C@@H]2CN(c3nccc(N4CCN(C)CC4)c3C(F)(F)F)C(=O)[C@H]2NC(=O)c2ccc(Cl)cc2)c(F)c1 [Example 250] | 6.9 | 4800
10 | COc1cc(F)c([C@@H]2CN(c3c(C#N)ccn(C)c3=O)C(=O)[C@H]2NC(=O)c2ccc(Cl)cc2)c(F)c1 [Example 251] | 7 | > 5000
11 | COCC(CO)n1cccc(N2C[C@@H](c3ccc(OC)cc3)[C@H](NC(=O)c3ccc(OC(F)F)cc3)C2=O)c1=O (stereo partly shown) [Example 252] | 7 | 44
12 | COc1cc(F)c([C@@H]2CN(c3cccn(CC(C)OC)c3=O)C(=O)[C@H]2NC(=O)c2ccc(OC(F)F)cc2)c(F)c1 (stereo partly shown) [Example 253] | 7 | 11
13 | COc1cc(F)c([C@@H]2CN(c3cccn(CC(C)(CO)CO)c3=O)C(=O)[C@H]2NC(=O)c2ccc(OC(F)(F)F)cc2)c(F)c1 [Example 254] | 7 | 52
14 | CCn1cccc(N2C(=O)[C@@H](NC(=O)c3ccc(OC(F)F)cc3)[C@H](c3c(F)cc(OC)cc3F)[C@H]2C)c1=O [Example 255] | 7 | 52
15 | COc1cc(F)c([C@@H]2CN(c3nc(N4C[C@H]5C[C@@H]4CO5)ccc3F)C(=O)[C@H]2NC(=O)c2ccc(OC(F)F)cc2)c(F)c1 [Example 256] | 7.2 | 530
16 | COCC(C(=O)N(C)C)n1ccc(C)c(N2C[C@@H](c3c(F)cc(OC)cc3F)[C@H](NC(=O)c3ccc(OC(F)F)cc3)C2=O)c1=O (stereo partly shown) [Example 257] | 7.3 | 1.6
17 | COc1cc(F)c([C@@H]2CN(c3cccn(CCF)c3=O)C(=O)[C@H]2NC(=O)c2ccc(OC(F)F)cc2)c(F)c1 [Example 258] | 7.4 | 83
18 | COc1cc(F)c([C@@H]2CN(c3nc(N4C[C@@H]5C[C@H]4CN5C)ccc3OC)C(=O)[C@H]2NC(=O)c2ccc(Cl)cc2)c(F)c1 [Example 259] | 7.4 | 580
19 | COCCn1ccc(C)c(N2C[C@@H](c3ccc(OC)cc3)[C@H](NC(=O)c3ccc(OC(F)F)cc3)C2=O)c1=O [Example 260] | 7.5 | 1.2
20 | CNc1ccnc(N2C[C@@H](c3c(F)cc(OC)cc3F)[C@H](NC(=O)c3ccc(OC(F)F)cc3)C2=O)c1C(F)(F)F [Example 261] | 7.5 | 940
21 | COc1cc(F)c([C@@H]2CN(c3c(C)ccn(CCO)c3=O)C(=O)[C@H]2NC(=O)c2ccc(OC(F)F)cc2)c(F)c1 [Example 262] | 7.5 | 18
22 | COc1cc(F)c([C@@H]2CN(c3nccc(NC4CCOC4)c3C(F)(F)F)C(=O)[C@H]2NC(=O)c2ccc(Cl)cc2)c(F)c1 (stereo partly shown) [Example 263] | 7.5 | 1300
23 | COc1ccc([C@@H]2CN(c3c(C)ccn(C4CCOC4)c3=O)C(=O)[C@H]2NC(=O)c2ccc(OC(F)F)cc2)cc1 (stereo partly shown) [Example 265] | 7.6 | 1.5
24 | COc1cc(F)c([C@@H]2CN(c3nc(N4C(=O)CC[C@H]4CO)ccc3F)C(=O)[C@H]2NC(=O)c2ccc(OC(F)F)cc2)c(F)c1 [Example 266] | 7.6 | 410

More lines, now with the values ahead:

Row | EC50 (human FPR2) [nM] | EC50 (human FPR1) [nM] | Compound
25 | 6.2 | 630 | COc1cc(F)c([C@@H]2CN(c3nc(N4C[C@@H](C)N(C)[C@@H](C)C4)ccc3OC)C(=O)[C@H]2NC(=O)c2ccc(OC(F)F)cc2)c(F)c1 [Example 225]
26 | 6.2 | 23 | CCn1cccc(N2C[C@@H](c3ccc(OC)cc3F)[C@H](NC(=O)c3ccc(OC(F)F)cc3)C2=O)c1=O [Example 226]
27 | 6.2 | 240 | COc1cc(F)c([C@@H]2CN(c3ccc(CO)n(C)c3=O)C(=O)[C@H]2NC(=O)c2ccc(OC(F)(F)F)cc2)c(F)c1 [Example 227]
28 | 6.2 | 1.2 | CCn1ccc(C)c(N2C[C@@H](c3c(F)cc(OC)cc3F)[C@H](NC(=O)c3ccc(OC(F)(F)F)cc3)C2=O)c1=O [Example 228]
29 | 6.2 | 88 | CCn1cc(F)cc(N2C[C@@H](c3c(F)cc(OC)cc3F)[C@H](NC(=O)c3ccc(OC(F)(F)F)cc3)C2=O)c1=O [Example 230]
30 | 6.3 | 3.2 | COCCn1ccc(C)c(N2C[C@@H](c3c(F)cc(OC)cc3F)[C@H](NC(=O)c3ccc(OC(F)F)cc3)C2=O)c1=O [Example 232]
31 | 6.3 | > 5000 | COc1cc(N2CCN(C)CC2)nc(N2C[C@@H](c3c(F)cc(OC)cc3F)[C@H](NC(=O)c3ccc(Cl)cc3)C2=O)c1 [Example 233]
32 | 6.3 | 1100 | COc1cc(F)c([C@@H]2CN(c3nccc(NCC(C)O)c3C(F)(F)F)C(=O)[C@H]2NC(=O)c2ccc(OC(F)F)cc2)c(F)c1 (stereo partly shown) [Example 234]
33 | 6.5 | 84 | COc1cc(F)c([C@@H]2CN(c3cccnc3OC3CCOC3)C(=O)[C@H]2NC(=O)c2ccc(OC(F)(F)F)cc2)c(F)c1 (stereo partly shown) [Example 235]
34 | 6.5 | 30 | O=C(N[C@@H]1C(=O)N(c2cccn(CC(F)F)c2=O)C[C@H]1c1ccc(Cl)cc1)c1ccc(OC(F)F)cc1 [Example 236]
35 | 6.6 | 1500 | COc1cc(F)c([C@@H]2CN(c3cc(C(F)(F)F)cn(C)c3=O)C(=O)[C@H]2NC(=O)c2ccc(Cl)cc2)c(F)c1 [Example 238]
36 | 6.6 | 650 | COc1cc(F)c([C@@H]2CN(c3nccc(NCC(C)(C)O)c3C(F)(F)F)C(=O)[C@H]2NC(=O)c2ccc(OC(F)F)cc2)c(F)c1 [Example 239]
37 | 6.6 | 130 | COc1cc(F)c([C@@H]2CN(c3ccc(CO)[nH]c3=O)C(=O)[C@H]2NC(=O)c2ccc(OC(F)(F)F)cc2)c(F)c1 [Example 240]
38 | 6.6 | 38 | COc1cc(F)c([C@@H]2CN(c3cccn(CCC(F)(F)F)c3=O)C(=O)[C@H]2NC(=O)c2ccc(OC(F)F)cc2)c(F)c1 [Example 241]
